Measured values taken from patent EP4714938A1, “HDAC1/2 SELECTIVE INHIBITOR AND USE THEREOF” (Wigen Biomedicine Technology (Shanghai) Co., Ltd., priority 2023, dated 2024).

Test: Stability in liver microsomes
Assay type: in vitro ADME
Settings: for half-life at 1 µM: 1 µM compound, 37 °C, NADPH regeneration system
Procedure: After the 1 µM compound was individually incubated at 37 °C for various durations with […] liver microsomes from humans, monkeys, beagles, rats, or mice in the presence of an NADPH regeneration system, LC-MS-MS was used to analyze the remaining amount of the compound, and T1/2 was calculated. Table 10. Evaluation results of stability of compounds of the present disclosure in human and mouse liver microsomes

CS(C)(=O)=Nc1ccc(C(=O)Nc2cc(-c3ccc(F)cc3)ccc2N)cc1 [Compound 1, N-(4-Amino-4'-fluoro-[1,1'-biphenyl]-3-yl)-4-((dimethyl(oxo)-1^λ-6-sulfaneylidene)amino)benzamide]
CLint scaled at 1 µM (Human liver microsomes): 17.4 mL/min/kg
Clliver (Human liver microsomes): 9.45 mL/min/kg
half-life at 1 µM (Human liver microsomes): 1.67 h
CLint scaled at 1 µM (Mouse liver microsomes): 5.55 mL/min/kg
Clliver (Mouse liver microsomes): 5.23 mL/min/kg
half-life at 1 µM (Mouse liver microsomes): 16.4 h
